Assay results as given in publication PMC9518264, “Design and synthesis of novel quinazolinone-based derivatives as EGFR inhibitors with antitumor activity” (Journal of Enzyme Inhibition and Medicinal Chemistry, 2022).
Like-named read-outs stand apart in the source and are kept apart here.

Columns and labels:
[1] = test system: CCRF-CEM; assay: cells; type: cell-based; settings: Homo sapiens, read-out: growth inhibition % (GI%)
[2] = test system: K-562; assay: cells; type: cell-based; settings: Homo sapiens
[3] = test system: MOLT-4; assay: cells; type: cell-based; settings: Homo sapiens
[4] = test system: RPMI-8226; assay: cells; type: cell-based; settings: Homo sapiens
[5] = test system: SR; assay: cells; type: cell-based; settings: Homo sapiens, read-out: growth inhibition % (GI%)
[6] = test system: A549/ATCC; assay: cells; type: cell-based; settings: Homo sapiens
[7] = test system: EKVX; assay: cells; type: cell-based; settings: Homo sapiens, read-out: growth inhibition % (GI%)
[8] = test system: HOP-62; assay: cells; type: cell-based; settings: Homo sapiens
[9] = test system: HOP-92; assay: cells; type: cell-based; settings: Homo sapiens
[10] = test system: NCI-H226; assay: cells; type: cell-based; settings: Homo sapiens
[11] = test system: NCI-H322M; assay: cells; type: cell-based; settings: Homo sapiens, read-out: growth inhibition % (GI%)
[12] = test system: NCI-H522; assay: cells; type: cell-based; settings: Homo sapiens
[13] = test system: COLO-205; assay: cells; type: cell-based; settings: Homo sapiens
[14] = test system: HCC-2998; assay: cells; type: cell-based; settings: Homo sapiens
[15] = test system: HCT-116; assay: cells; type: cell-based; settings: Homo sapiens
[16] = test system: HCT-15; assay: cells; type: cell-based; settings: Homo sapiens
[17] = test system: KM12; assay: cells; type: cell-based; settings: Homo sapiens
[18] = test system: SW-620; assay: cells; type: cell-based; settings: Homo sapiens
[19] = test system: SF-268; assay: cells; type: cell-based; settings: Homo sapiens
[20] = test system: SF-539; assay: cells; type: cell-based; settings: Homo sapiens
[21] = test system: SNB-19; assay: cells; type: cell-based; settings: Homo sapiens
[22] = test system: SNB-75; assay: cells; type: cell-based; settings: Homo sapiens
[23] = test system: U251; assay: cells; type: cell-based; settings: Homo sapiens
[24] = test system: LOX IMIV; assay: cells; type: cell-based; settings: Homo sapiens, 60 cell, read-out: growth inhibition % (GI%)
[25] = test system: MALME-3M; assay: cells; type: cell-based; settings: Homo sapiens, read-out: growth inhibition % (GI%)
[26] = test system: SK-MEL-2; assay: cells; type: cell-based; settings: Homo sapiens
[27] = test system: SK-MEL-28; assay: cells; type: cell-based; settings: Homo sapiens
[28] = test system: SK-MEL-5; assay: cells; type: cell-based; settings: Homo sapiens
[29] = test system: UACC-257; assay: cells; type: cell-based; settings: Homo sapiens
[30] = test system: IGROV1; assay: cells; type: cell-based; settings: Homo sapiens
[31] = test system: OVCAR-4; assay: cells; type: cell-based; settings: Homo sapiens
[32] = test system: OVCAR-5; assay: cells; type: cell-based; settings: Homo sapiens
[33] = test system: NCI/ADR-RES; assay: cells; type: cell-based; settings: Homo sapiens, read-out: growth inhibition % (GI%)
[34] = test system: SK-OV-3; assay: cells; type: cell-based; settings: Homo sapiens
[35] = test system: 786-0; assay: cells; type: cell-based; settings: Homo sapiens
[36] = test system: A498; assay: cells; type: cell-based; settings: Homo sapiens
[37] = test system: ACHN; assay: cells; type: cell-based; settings: Homo sapiens, read-out: growth inhibition % (GI%)
[38] = test system: TK-10; assay: cells; type: cell-based; settings: Homo sapiens
[39] = test system: DU-145; assay: cells; type: cell-based; settings: Homo sapiens
[40] = test system: MCF7; assay: cells; type: cell-based; settings: Homo sapiens
[41] = test system: MDA-MB-231/ATCC; assay: NCI 60 cell line antiproliferative screening (SRB), Breast cancer; type: cell-based; settings: Homo sapiens, MDA-MB-231, read-out: growth inhibition % (GI%)
[42] = test system: HS 578T; assay: cells; type: cell-based; settings: Homo sapiens, read-out: growth inhibition % (GI%)
[43] = test system: BT-549; assay: cells; type: cell-based; settings: Homo sapiens
[44] = test system: T-47D; assay: cells; type: cell-based; settings: Homo sapiens, T47D, read-out: growth inhibition % (GI%)
[45] = test system: panel of 60 tumour cell lines; assay: NCI 60 cell line antiproliferative screening (SRB), whole panel or subpanels (means, ranges, words); type: cell-based, human; settings: for inhibition at 10 µM: Homo sapiens, 60 cell, mean over the cell line panel, read-out: Mean growth inhibition % (mean GI%)
[46] = test system: OVCAR-3; assay: NCI 60 cell line antiproliferative screening (SRB), Ovarian cancer; settings: Homo sapiens, OVCAR-3, read-out: growth inhibition % (GI%)

SMILES: O=C(CSc1nc2ccccc2c(=O)n1-c1ccc(Cl)cc1)NN=Cc1ccc(Oc2ccc(Br)cc2)cc1 [6e, N'-(4–(4-bromophenoxy)benzylidene)-2-((3–(4-chlorophenyl)-4-oxo-3,4-dihydroquinazolin-2-yl)thio)acetohydrazide]
- inhibition at 10 µM ([1]; 10 μM): < 15%
- inhibition at 10 µM ([2]; K562, K-562, 10 μM, read-out: growth inhibition % (GI%)): < 15%
- inhibition at 10 µM ([3]; MOLT-4, 10 μM, read-out: growth inhibition % (GI%)): < 15%
- inhibition at 10 µM ([4]; RPMI-8226, 10 μM, read-out: growth inhibition % (GI%)): < 15%
- inhibition at 10 µM ([5]; 10 μM): < 15%
- inhibition at 10 µM ([6]; A549/ATCC, 10 μM, read-out: growth inhibition % (GI%)): < 15%
- inhibition at 10 µM ([7]; 10 μM): < 15%
- inhibition at 10 µM ([8]; HOP-62, 10 μM, read-out: growth inhibition % (GI%)): < 15%
- inhibition at 10 µM ([9]; HOP-92, 10 μM, read-out: growth inhibition % (GI%)): < 15%
- inhibition at 10 µM ([10]; NCI-H226, 10 μM, read-out: growth inhibition % (GI%)): < 15%
- inhibition at 10 µM ([11]; 10 μM): < 15%
- inhibition at 10 µM ([12]; NCI-H522, 10 μM, read-out: growth inhibition % (GI%)): 13.4%
- inhibition at 10 µM ([13]; COLO-205, 10 μM, read-out: growth inhibition % (GI%)): < 15%
- inhibition at 10 µM ([14]; HCC-2998, 10 μM, read-out: growth inhibition % (GI%)): < 15%
- inhibition at 10 µM ([15]; HCT-116, 10 μM, read-out: growth inhibition % (GI%)): < 15%
- inhibition at 10 µM ([16]; HCT-15, 10 μM, read-out: growth inhibition % (GI%)): < 15%
- inhibition at 10 µM ([17]; KM12, 10 μM, read-out: growth inhibition % (GI%)): < 15%
- inhibition at 10 µM ([18]; SW-620, 10 μM, read-out: growth inhibition % (GI%)): < 15%
- inhibition at 10 µM ([19]; SF-268, 10 μM, read-out: growth inhibition % (GI%)): < 15%
- inhibition at 10 µM ([20]; SF-539, 10 μM, read-out: growth inhibition % (GI%)): < 15%
- inhibition at 10 µM ([21]; SNB-19, 10 μM, read-out: growth inhibition % (GI%)): < 15%
- inhibition at 10 µM ([22]; SNB-75, 10 μM, read-out: growth inhibition % (GI%)): < 15%
- inhibition at 10 µM ([23]; U-251, U251, 10 μM, read-out: growth inhibition % (GI%)): < 15%
- inhibition at 10 µM ([24]; LOX IMIV, 10 μM): < 15%
- inhibition at 10 µM ([25]; MALME-3M, 10 μM): < 15%
- inhibition at 10 µM ([26]; SK-MEL-2, 10 μM, read-out: growth inhibition % (GI%)): < 15%
- inhibition at 10 µM ([27]; SK-MEL-28, 10 μM, read-out: growth inhibition % (GI%)): < 15%
- inhibition at 10 µM ([28]; SK-MEL-5, 10 μM, read-out: growth inhibition % (GI%)): < 15%
- inhibition at 10 µM ([29]; UACC-257, 10 μM, read-out: growth inhibition % (GI%)): < 15%
- inhibition at 10 µM ([30]; IGROV-1, IGROV1, 10 μM, read-out: growth inhibition % (GI%)): < 15%
- inhibition at 10 µM ([31]; OVCAR-4, 10 μM, read-out: growth inhibition % (GI%)): < 15%
- inhibition at 10 µM ([32]; OVCAR-5, 10 μM, read-out: growth inhibition % (GI%)): < 15%
- inhibition at 10 µM ([33]; 10 μM): < 15%
- inhibition at 10 µM ([34]; SK-OV-3, 10 μM, read-out: growth inhibition % (GI%)): < 15%
- inhibition at 10 µM ([35]; 786-0, 10 μM, read-out: growth inhibition % (GI%)): < 15%
- inhibition at 10 µM ([36]; A498, 10 μM, read-out: growth inhibition % (GI%)): 15.7%
- inhibition at 10 µM ([37]; 10 μM): < 15%
- inhibition at 10 µM ([38]; TK-10, 10 μM, read-out: growth inhibition % (GI%)): < 15%
- inhibition at 10 µM ([39]; DU-145, 10 μM, read-out: growth inhibition % (GI%)): < 15%
- inhibition at 10 µM ([40]; MCF7, 10 μM, read-out: growth inhibition % (GI%)): < 15%
- inhibition at 10 µM [41]: < 15%
- inhibition at 10 µM ([42]; HS 578T, 10 μM): < 15%
- inhibition at 10 µM ([43]; BT-549, 10 μM, read-out: growth inhibition % (GI%)): < 15%
- inhibition at 10 µM ([44]; T-47D, 10 μM): < 15%
- antiproliferative activity against all tested cell lines ([45]; 10 μM single dose): abolishing the antiproliferative activity
- inhibition at 10 µM ([45]; 10 μM): < 0%
- inhibition at 10 µM [46]: < 15%

SMILES: COc1ccc(Oc2ccc(C=NNC(=O)CSc3nc4ccccc4c(=O)n3-c3ccc(Cl)cc3)cc2)cc1 [6f, 2-((3–(4-chlorophenyl)-4-oxo-3,4-dihydroquinazolin-2-yl)thio)-N'-(4–(4-methoxyphenoxy)benzylidene)acetohydrazide]
- inhibition at 10 µM [1]: 36.5%
- inhibition at 10 µM ([2]; K562, read-out: growth inhibition % (GI%)): 41.6%
- inhibition at 10 µM ([3]; MOLT-4, read-out: growth inhibition % (GI%)): 38.3%
- inhibition at 10 µM ([4]; RPMI-8226, read-out: growth inhibition % (GI%)): 14.9%
- inhibition at 10 µM [5]: 27.2%
- inhibition at 10 µM ([6]; A549, read-out: growth inhibition % (GI%)): 53%
- inhibition at 10 µM [7]: 30.6%
- inhibition at 10 µM ([8]; HOP-62, read-out: growth inhibition % (GI%)): 26.7%
- inhibition at 10 µM ([9]; HOP-92, read-out: growth inhibition % (GI%)): 22.7%
- inhibition at 10 µM ([10]; NCI-H226, read-out: growth inhibition % (GI%)): 20.3%
- inhibition at 10 µM [11]: 15.3%
- inhibition at 10 µM ([12]; NCI-H522, read-out: growth inhibition % (GI%)): 48.7%
- inhibition at 10 µM ([13]; COLO 205, read-out: growth inhibition % (GI%)): 27.2%
- inhibition at 10 µM ([14]; HCC 2998, read-out: growth inhibition % (GI%)): 16.6%
- inhibition at 10 µM ([15]; HCT-116, read-out: growth inhibition % (GI%)): 86.7%
- inhibition at 10 µM ([16]; HCT-15, read-out: growth inhibition % (GI%)): 44%
- inhibition at 10 µM ([17]; KM12, read-out: growth inhibition % (GI%)): 22.8%
- inhibition at 10 µM ([18]; SW-620, read-out: growth inhibition % (GI%)): 55.6%
- inhibition at 10 µM ([19]; SF-268, read-out: growth inhibition % (GI%)): 42.1%
- inhibition at 10 µM ([20]; SF-539, read-out: growth inhibition % (GI%)): 67.8%
- inhibition at 10 µM ([21]; SNB-19, read-out: growth inhibition % (GI%)): 38.5%
- inhibition at 10 µM ([22]; SNB-75, read-out: growth inhibition % (GI%)): 58.4%
- inhibition at 10 µM ([23]; U-251, read-out: growth inhibition % (GI%)): 63.5%
- inhibition at 10 µM [24]: 85.3%
- inhibition at 10 µM ([25]; Malme-3M): 36.1%
- inhibition at 10 µM ([26]; SK-MEL-2, read-out: growth inhibition % (GI%)): < 15%
- inhibition at 10 µM ([27]; SK-MEL-28, read-out: growth inhibition % (GI%)): < 15%
- inhibition at 10 µM ([28]; SK-MEL-5, read-out: growth inhibition % (GI%)): 22%
- inhibition at 10 µM ([29]; UACC-257, read-out: growth inhibition % (GI%)): < 15%
- inhibition at 10 µM ([30]; IGROV-1, read-out: growth inhibition % (GI%)): 51.4%
- inhibition at 10 µM ([31]; OVCAR-4, read-out: growth inhibition % (GI%)): 27.4%
- inhibition at 10 µM ([32]; OVCAR-5, read-out: growth inhibition % (GI%)): 18.8%
- inhibition at 10 µM [33]: 48.9%
- inhibition at 10 µM ([34]; SK-OV-3, read-out: growth inhibition % (GI%)): 33.7%
- inhibition at 10 µM ([35]; 786-0, read-out: growth inhibition % (GI%)): 74.8%
- inhibition at 10 µM ([36]; A498, read-out: growth inhibition % (GI%)): 27.1%
- inhibition at 10 µM [37]: 92.2%
- inhibition at 10 µM ([38]; TK-10, read-out: growth inhibition % (GI%)): < 15%
- inhibition at 10 µM ([39]; DU-145, read-out: growth inhibition % (GI%)): 50.8%
- inhibition at 10 µM ([40]; MCF7, read-out: growth inhibition % (GI%)): 50.7%
- inhibition at 10 µM [41]: 53.3%
- inhibition at 10 µM ([42]; Hs-578T): > 100%
- inhibition at 10 µM ([43]; BT-549, read-out: growth inhibition % (GI%)): < 15%
- inhibition at 10 µM [44]: 62.1%
- GI% range over a subset of cell lines ([45]; 10 μM, subset of cell lines whose number is stated in the sentence): 67.83 to 30.59%
- inhibition at 10 µM ([45]; 10 μM): 42.5%
- inhibition at 10 µM [46]: > 100%
